Key:
Type in all cases: in vivo
[1] = tested on: Alopercurus myosuroides (ALOMY); assay: Greenhouse herbicidal test, post-emergence; conditions: postemergence, application rate 5 kg/ha, scale 0 to 100
Source text: (§1) The culture containers used were plastic flowerpots containing loamy sand with approximately 3.0% of humus as the substrate. The seeds of the test plants were sown separately for each species.
(§2) For the post-emergence treatment, the test plants were first grown to a height of 2 to 15 cm, depending on the plant habit, and only then treated with the active ingredients which had been suspended or emulsified in water. For this purpose, the test plants were either sown directly and grown in the same containers, or they were first grown separately as seedlings and transplanted into the test containers a few days prior to treatment.
(§3) Depending on the species, the test plants were kept at 10-25° C. or 20-35° C., respectively.
(§4) The test period extended over 2 to 4 weeks. During this time, the test plants were tended, and their response to the individual treatments was evaluated.
(§5) Evaluation was carried out using a scale from 0 to 100. 100 means no emergence of the test plants, or complete destruction of at least the aerial moieties, and 0 means no damage, or normal course of growth. A moderate herbicidal activity is given at values of 40 to 59, good herbicidal activity is given at values of more than 59 to 80 and a very good herbicidal activity is given at values of more than 80 to 100.

[2] = tested on: Apera spica-venti (APESV); assay: Greenhouse herbicidal test, pre-emergence; conditions: application rate 5 kg/ha, scale 0 to 100
Source text: as §1
For the pre-emergence treatment, the active ingredients, which had been suspended or emulsified in water, were applied directly after sowing by means of finely distributing nozzles. The containers were irrigated gently to promote germination and growth and subsequently covered with transparent plastic hoods until the test plants had rooted. This cover caused uniform germination of the test plants, unless this had been impaired by the active ingredients.
as §3, §4, §5

Setaria viridis (SETVI) = assay: Greenhouse herbicidal test, post-emergence; conditions: postemergence, application rate 5 kg/ha, scale 0 to 100
Source text: as §1, §2, §3, §4, §5

[3] = tested on: Amaranthus retroflexus (AMARE); assay: Greenhouse herbicidal test, post-emergence; conditions: postemergence, application rate 5 kg/ha, scale 0 to 100
Source text: as §1, §2, §3, §4, §5

[4] = tested on: Echinocloa crus-galli (ECHCG); assay: Greenhouse herbicidal test, post-emergence; conditions: postemergence, application rate 5 kg/ha, scale 0 to 100
Source text: as §1, §2, §3, §4, §5

CP(=O)(O)CCC(NC(N)=O)C(=O)O (centres unmarked) [Compound a]
herbicidal activity against ALOMY [1]: moderate (A moderate herbicidal activity is given at values of 40 to 59)

CP(=O)(O)CC[C@@H](NC(N)=O)C(=O)O [Compound b]
herbicidal activity against APESV [2]: good (good herbicidal activity is given at values of more than 59 to 80)

CP(=O)(O)CCC1NC(=O)NC1=O (centres unmarked) [Compound e]
herbicidal activity against SETVI (Setaria viridis (SETVI)): good (good herbicidal activity is given at values of more than 59 to 80)

CCCCOP(C)(=O)CCC(NC(N)=O)C(=O)O (centres unmarked) [Compound f, 4-[butoxy(methyl)phosphoryl]-2-ureido-butanoic acid]
herbicidal activity against AMARE [3]: good (good herbicidal activity is given at values of more than 59 to 80) | herbicidal activity against ECHCG [4]: good (good herbicidal activity is given at values of more than 59 to 80)

From patent US20250049037A1, “HERBICIDAL ACTIVITY OF ALKYL PHOSPHINATES” (priority 2021, published 2025)
